Data reported in US7598279B2, “Neurotherapeutic azole compounds” (SK Holdings Co., Ltd., priority 2005, dated 2009).

Assays:
[1] = test system: mice; experiment: Forced swimming test (FST); format: in vivo; conditions: 30 min after dosing
Protocol: The “Forced swimming test (FST)” for antidepressant activity was also carried out. The procedure employed in the FST for antidepressant is as follows. The compounds to be tested were dissolved in 30% PEG400 and administered ip and po into animals. 30 min later, the immobility time during post 4 minutes of 6 minutes experiment time was measured.

[2] = test system: mice; experiment: Maximal ElectroShock (MES)-induced tonic seizure test; format: in vivo; conditions: for ED50 / responders at 30 mg/kg: Mus musculus; for ED50: read-out: Mice MES ED50 (mpk/peak time); for responders at 30 mg/kg: read-out: Mice MES Protection % (mpk/peak time)
Protocol: The “Maximal ElectroShock (MES)” test is a well-established pharmacological screening method for anticonvulsants against tonic-clonic seizures. The procedure employed in the MES test for anticonvulsants is as follows. The compounds to be tested were dissolved in 30% PEG400 and administered ip and po into animals. After the designated number of hours, maximal electroshock (50 mA, 60 Hz, 0.2 sec) was applied into animals via corneal electrodes using IITC Life Science model 11A Shocker. […] Median efficacy dose (ED50) levels were determined using three different dose levels with at least 8 mice in each group.

[3] = test system: mice; experiment: Light-Dark Box (LDB) test; format: in vivo
Protocol: Light-Dark Box (LDB) test, one of the unconditioned conflict tests, was used to investigate anxiolytic activity for several drugs such as Diazepam, Buspirone, etc (Allikmets et al, 1996; Belzung and Griebel, 2001; Cutler and Aitken, 1991; Leyre et al, 2004). In the present study, anxiolytic effect of azole compounds containing carbamoyl group represented by general structural formula (IX) was investigated on the LDB test in mice.
The animals were treated with compound 30 min prior to testing. The light-dark box consisted of a plexiglas apparatus measuring 45 cm×27 cm×27 cm (L×W×H), and was partitioned into two compartments, one fully opaque (dark compartment made of black plexiglas: 18 cm of total length of apparatus), while the second was lit from the compartment ceiling by a 100 W bulb. A small opening (7×7 cm) in the partition wall allowed free passage between the light and dark compartments.
Animals were placed at the lit compartment first, and the latency for escape into dark was checked and tested in the LDB for 5 min after the first entering into dark box. The animal, which the latency was over 2 min, was excluded from the test. Total time spent in the light compartment was counted. Movement of animal was checked through the TV-CCD camera by an experienced observer blind to the conditions of the experiment. A mouse whose four paws were in the new box was considered as having changed box.

[4] = test system: mice; experiment: Pentylenetetrazol (PTZ)-induced clonic seizure test; format: in vivo; conditions: for ED50 / responders at 30 mg/kg: Mus musculus; for ED50: sc, read-out: Mice PTZ ED50 (mpk/peak time); for responders at 30 mg/kg: read-out: Mice PTZ Protection % (mpk/peak time)
Protocol: The “Pentylenetetrazol (PTZ)” test for anticonvulsant and antianxiety activity was also carried out.
The procedure employed in the PTZ test is as follows. The compounds to be tested were dissolved in 30% PEG400 and administered ip and po into animals. After the designated number of hours, each animal was injected subcutaneously with 100 mg/kg of PTZ (CD97 dose) and observed for up to 30 minutes for the presence or absence of clonic spasms over 5 seconds. Median efficacy dose (ED50) levels were determined using three different dose levels with 8 mice in each group.

[5] = test system: TBPS site of GABA-A receptor; experiment: GABA-A receptor (TBPS site) binding assay, [35S]TBPS; conditions: rat brain membranes, 2 nM [35S]TBPS
Protocol: Compounds of the inventions were tested for specific binding to TBPS (t-butyl bicyclophosphorothionate) site, an allosteric modulator site of GABA-A receptor as modified from G. Maksay and M. Simonyi, Eur. J. Pharmacol. 1985, 117(2), 275. and Gee, K. W. et al., J. Pharm. Exp. Ther. 1988, 246, 803.
This binding assay was performed using [35S] TBPS as radioligand in washed crude membrane homogenate from rat brains. Membrane preparations were carried out according to procedure described below. Sprague-Dawley (SD) rat weighting 230 g were killed by decapitation and their whole brains were rapidly removed and its cerebellums were excluded. The dissected brains were homogenized for 30 sec in 10 volumes (W/V) of ice-cold 0.32 M Sucrose and 50 mM Tris-citrate buffer pH 7.4 using glass homogenate. The homogenate was centrifuged at 2,000×g for 5 min at 4° C. And the supernatant re-centrifuged at 50,000×g for 20 min at 4° C. The supernatant was discarded and the resulting pellets were resuspended in 10 volumes (W/V) of ice-cold 50 mM Tris-citrate buffer pH 7.4. And then the suspended pellet was centrifuged at 50,000×g for 20 min at 4° C. The resulting pellets were suspended again in 32 volumes (W/V) of ice-cold 50 mM Tris-citrate buffer pH 7.4 with 0.05% Triton X-100 and then incubated in 37° C. for 60 min using a water bath. The incubated suspension was centrifuged at 50,000×g for 20 min at 4° C. Resuspending and centrifugation step of the remained pellets were repeated twice at the same manner and final pellets were resuspended in 10 volumes (W/V) of ice-cold 50 mM Tris-citrate buffer pH 7.4 to enable distribution of 2 ml aliquot in microcentrifuge tube, which were used immediately or kept at −80° C. for no more than 1 month before use.
For TBPS site binding assay, 50 μl of the tested compound were added to 100 μg membrane protein suspended in 0.15 ml of 50 mM Tris-citrate buffer with 200 mM NaCl pH 7.4 in presence of 2 nM of [35S] TBPS. The incubation of mixtures were carried out for 1.5 hours at 25° C. and then rapidly filtered over Whatman GF/C glass fiber filters, followed by twice 4.5 ml rinses with ice-cold incubation buffer. The filters were placed in counting vials and 4 ml scintillation solution. The vials were counted in a Beckman scintillation counter. Non-specific binding was determined in parallel incubations with 100 μM picrotoxin.
IC50 values for TBPS site binding assay was calculated using Graphpad PRISM v.3.00.

[6] = treated 30 min prior to testing, dose not given

Row | SMILES | Mice FST Reduction of immobility % [1] | ED50 ([2]; 0.5 h) [mg/kg] | Mice LDB % Duration in the light box [3, 6] | Mice FST Reduction of immobility % ([1]; dose not given) [%] | TBPS Inhibition % (At 100 μM) [5] [%] | ED50 ([4]; 1 h) [mg/kg] | further results
1 | NC(=O)OC(Cn1ncnn1)c1ccccc1Cl (stereo not shown) [Example 2, Carbamic acid 1-(2-chloro-phenyl)-2-tetrazol-2-yl-ethyl ester] | N.S | 8.6 | 180%^ |  |  |  | ED50 ([4]; 0.5 h): 5.9 mg/kg
2 | NC(=O)O[C@@H](Cn1nccn1)c1ccccc1Cl [Example 33, Carbamic acid (R)-1-(2-chloro-phenyl)-2-[1,2,3]triazol-2-yl-ethyl ester] |  | 9.72 |  | 26.2 |  |  | Mice LDB % Duration in the light box ([3]; treated 30 min prior to testing): N.S; ED50 ([4]; 0.5 h): 8.18 mg/kg
3 | CC(C(OC(N)=O)c1ccc(Cl)c(Cl)c1)n1ncnn1 (stereo not shown) [Example 80, Carbamic acid 1-(3,4-dichloro-phenyl)-2-tetrazol-2-yl-propyl ester] |  |  |  | 50.6 | 64.8 |  | responders at 30 mg/kg ([2]; 4 h): 33.3%
4 | NC(=O)O[C@@H](Cn1nccn1)c1ccc(Cl)cc1 [Example 86, Carbamic acid (R)-1-(4-chloro-phenyl)-2-[1,2,3]triazol-2-yl-ethyl ester] | N.S | 21.4 |  |  | 18.9 |  | 
5 | NC(=O)O[C@@H](Cn1ncnn1)c1ccc(Cl)c(Cl)c1 [Example 88, Carbamic acid (R)-1-(3,4-dichloro-phenyl)-2-tetrazol-2-yl-ethyl ester] |  | 19.1 |  | 88.4 | 52.8 |  | 
6 | NC(=O)OC(Cn1ncnn1)c1cc(Cl)ccc1Cl (stereo not shown) [Example 89, Carbamic acid 1-(2,5-dichloro-phenyl)-2-tetrazol-2-yl-ethyl ester] | N.S |  | 167.4% ^ |  | 27.6 | 14.5 | ED50 ([2]; 1 h): 6.15 mg/kg
7 | NC(=O)OC(Cn1ncnn1)c1c(Cl)cccc1Cl (stereo not shown) [Example 98, Carbamic acid 1-(2,6-dichloro-phenyl)-2-tetrazol-2-yl-ethyl ester] |  | 6.03 |  | 31.5 | 29.9 |  | ED50 ([4]; 0.5 h): 11.6 mg/kg
8 | NC(=O)OC(Cn1nccn1)c1c(Cl)cccc1Cl (stereo not shown) [Example 99, Carbamic acid 1-(2,6-dichloro-phenyl)-2-[1,2,3]triazol-2-yl-ethyl ester] | N.S | 11.6 |  |  | 23.6 |  | responders at 30 mg/kg ([4]; 2 h): 100%
9 | NC(=O)O[C@@H](Cn1ncnn1)c1ccc(Cl)cc1Cl [Example 103, Carbamic acid (R)-1-(2,4-dichloro-phenyl)-2-tetrazol-2-yl-ethyl ester] | N.S |  | 277.8% ^ |  |  | 5.14 | ED50 ([2]; 1 h): 19.2 mg/kg; IC50 [5]: 13.4 µM
10 | NC(=O)O[C@H](Cn1ncnn1)c1ccc(Cl)cc1Cl [Example 113, Carbamic acid (S)-1-(2,4-dichloro-phenyl)-2-tetrazol-2-yl-ethyl ester] | N.S |  | −172% ^ |  |  | 20.7 | ED50 ([2]; 1 h): 13 mg/kg
11 | NC(=O)O[C@H](Cn1nccn1)c1ccc(Cl)cc1Cl [Example 114, Carbamic acid (S)-1-(2,4-dichloro-phenyl)-2-[1,2,3]triazol-2-yl-ethyl ester] | N.S |  | 172.5% ^ |  |  | 16.9 | ED50 ([2]; 1 h): 33.9 mg/kg; IC50 [5]: 107 µM
12 | NC(=O)O[C@@H](Cn1nccn1)c1ccc(Cl)cc1Cl [Example 115, Carbamic acid (R)-1-(2,4-dichloro-phenyl)-2-[1,2,3]triazol-2-yl-ethyl ester] | N.S |  |  |  |  | 8.43 | ED50 ([2]; 0.25 h): 12.7 mg/kg; Mice LDB % Duration in the light box ([3]; 10 mpk, ip): 245%^; IC50 [5]: 4.3 µM
13 | NC(=O)NC(=O)OC(Cn1ncnn1)c1ccccc1Cl (stereo not shown) [Example 129, O-1-(2-Chloro-phenyl)-2-tetrazol-2-yl ethyl allophanate] | N.S |  |  |  | 5.6 |  | Mice MES ED50 (mpk/peak time) ([2]; mice, peak time 0.5 hr): 13.7/0.5 hr mpk; Mice PTZ Protection % (mpk/peak time) ([4]; 3 mice, 30 mpk, 1 hr): 100% (30/1 hr)
14 | O=C(OC(Cn1ncnn1)c1ccccc1Cl)N1CCC(Cc2ccccc2)CC1 (stereo not shown) [Example 138, 4-Benzyl-piperidine-1-carboxylic acid 1-(2-chloro-phenyl)-2-tetrazol-2-yl-ethyl ester] |  |  |  | 35.9 | 49.6 |  | responders at 30 mg/kg ([2]; 2 h): 100%; responders at 30 mg/kg ([4]; 4 h): 66.7%
15 | NC(=O)OC(COc1ccc(Cl)c(Cl)c1)Cn1ncnn1 (stereo not shown) [Example 148, Carbamic acid 2-(3,4-dichloro-phenoxy)-1-tetrazol-2-ylmethyl-ethyl ester] | N.S |  |  |  | 76.1 |  | responders at 30 mg/kg ([2]; 0.5 h): 100%; responders at 30 mg/kg ([4]; 4 h): 66.7%
